Measured values taken from the CheMixHub viscosity set.

Test: xn = mol fraction of the nth substance listed

BrC(Br)Br + CCCCCC
298.15 K, 101 kPa
Details | viscosity [mPa·s]
x1 = 0.1058 | 0.3543
x1 = 0.2044 | 0.402
x1 = 0.2976 | 0.4904
x1 = 0.3989 | 0.5721
x1 = 0.5 | 0.6698
x1 = 0.6001 | 0.8212
x1 = 0.6743 | 0.9353
x1 = 0.8 | 1.217
x1 = 0.8948 | 1.475

CCCCCCCCO + CCC(C)=O
viscosity [mPa·s], 100 kPa
Details | x2 = 0.0822 | x2 = 0.1611 | x2 = 0.2403 | x2 = 0.3498 | x2 = 0.4409 | x2 = 0.5588 | x2 = 0.6462 | x2 = 0.7398 | x2 = 0.8503 | x2 = 0.9398
293.15 K | 7.1 | 5.43 | 4.3 | 3.18 | 2.46 | 1.7 | 1.26 | 0.96 | 0.68 | 0.49
303.15 K | 4.93 | 3.97 | 3.09 | 2.32 | 1.7 | 1.03 | 0.75 | 0.62 | 0.49 | 0.42
313.15 K | 3.59 | 2.87 | 2.28 | 1.69 | 1.32 | 0.98 | 0.78 | 0.62 | 0.49 | 0.39
323.15 K | 2.74 | 2.22 | 1.82 | 1.38 | 1.1 | 0.83 | 0.67 | 0.54 | 0.43 | 0.35

BrC(Br)Br + CCCCCO
viscosity [mPa·s], 101.3 kPa
Details | x1 = 0.097 | x1 = 0.2 | x1 = 0.296 | x1 = 0.4 | x1 = 0.499 | x1 = 0.6 | x1 = 0.701 | x1 = 0.8 | x1 = 0.9
298.15 K | 3.255 | 3.006 | 2.729 | 2.477 | 2.275 | 2.114 | 1.997 | 1.91 | 1.873
303.15 K | 2.831 | 2.621 | 2.399 | 2.2 | 2.039 | 1.928 | 1.822 | 1.762 | 1.742
308.15 K | 2.452 | 2.296 | 2.113 | 1.954 | 1.829 | 1.741 | 1.67 | 1.631 | 1.628

CC(C)(C)N + Cc1ccccc1
303.15 K, 101 kPa
Details | viscosity [mPa·s]
x2 = 0.1549 | 0.4385
x2 = 0.2226 | 0.4405
x2 = 0.3039 | 0.4431
x2 = 0.3981 | 0.4489
x2 = 0.522 | 0.458
x2 = 0.6221 | 0.4693
x2 = 0.7184 | 0.4824
x2 = 0.8751 | 0.5067
